Measured values reported in US20070167492A1, “Molluscicidal agents” (priority 2003, published 2007).

Legend:
[1] = tested on: Deroceras reticulatum (grey field slug); test: Example 1: pot test, treated winter wheat seed with 5 adult slugs per pot, 14 days; assay type: in vivo
Protocol: (§1) Winter wheat (Kampa race; thousand grain weight of 51 grams) was used in an experiment to test the efficacy of the compositions of the present inventions in relation to known molluscicidal compounds. The seeds were disinfected for soil and germ moulds with 2 ml of Beret Gold (comprising 25 g/l of the fungicide fludioxonil) per kg of seed.
(§2) Sepiret® was added to all dry disinfections, and is the coating that was added to all agents of which the formulation was not suitable for coating.
The seeds were sown in earthenware pots with an internal diameter of 20 cm and a height of 18 cm, filled with 7 cm of potting soil (Trio BV, Weesp, The Netherlands) and with a top 2 cm of white quartz sand. A total of 40 seeds was placed in each pot, in a pattern of concentric circles on top of the quartz sand, the germ facing upwards. To each pot a total of 5 adult specimens of the test slug Deroceras reticulatum (grey field slug) were added. The pots were incubated at ±15° C. with a relative humidity of ±90% and light regime of ±12 hours light/12 hours dark, without artificial lighting. The pots were not irrigated overhead. In total, 4 parallel tests were performed for each test.
Following the addition of the slugs, the number of damaged seeds was counted after 2, 3, 7, 10 and 14 days. The number of plants present (germinated and not eaten or damaged by the slugs) was determined 3, 7, 10 and 14 days after the start of the test. […] The number of dead slugs was counted 2, 3, 7, 10 and 14 days after the start of the test (but not removed). Finally, on days 3, 7, 10 and 14 after the start of the test, the number fecal pellets was counted.
The data were statistically analysed by using F-tests (α=0.05) and pair-wise Student-tests.

[2] = tested on: Winter wheat (Kampa race) seeds; test: Seed germination test of treated winter wheat seeds (rolled in paper); assay type: in vivo; conditions: 3x50 seeds, 6 days at 22° C.
Protocol: as §1, §2
Table 2 provides an overview of the amounts of diluent water and Sepiret® used for treating the wheat seeds. Table 2 further provides the quality of the coating and the percentages of germinating seeds in a seed germination test. In this test, the percentage of germination of 3×50 seeds, rolled in paper, was determined after 6 days at 22° C. (continuously) and a 16 hours light regime.

[3] = 2 ml formulated per kg seed, 2 days after sowing
[4] = 2 ml formulated per kg seed, 3 days after sowing
[5] = 2 ml formulated per kg seed, 7 days after sowing
[6] = 2 ml formulated per kg seed, 10 days after sowing
[7] = 2 ml formulated per kg seed, 14 days after sowing
[8] = 4 ml formulated per kg seed, 2 days after sowing
[9] = 4 ml formulated per kg seed, 3 days after sowing
[10] = 4 ml formulated per kg seed, 7 days after sowing
[11] = 4 ml formulated per kg seed, 10 days after sowing
[12] = 4 ml formulated per kg seed, 14 days after sowing
[13] = 8 ml formulated per kg seed, 2 days after sowing
[14] = 8 ml formulated per kg seed, 3 days after sowing
[15] = 8 ml formulated per kg seed, 7 days after sowing
[16] = 8 ml formulated per kg seed, 10 days after sowing
[17] = 8 ml formulated per kg seed, 14 days after sowing
[18] = 23 ml formulated per kg seed, 2 days after sowing
[19] = 23 ml formulated per kg seed, 3 days after sowing
[20] = 23 ml formulated per kg seed, 7 days after sowing
[21] = 23 ml formulated per kg seed, 10 days after sowing
[22] = 23 ml formulated per kg seed, 14 days after sowing

CN1COCN(Cc2cnc(Cl)s2)/C1=N\[N+](=O)[O-] [thiamethoxam]
number of utilizable plants after 14 days ([1]; 2 ml formulated per kg seed): 0.3
percentage of damaged seeds after 14 days ([1]; 2 ml formulated per kg seed): 97%
Mean number of damaged seeds per pot [1, 3]: 5.0
Mean number of dead slugs per pot [1, 3]: 0
Mean number fecal pellets per pot [1, 4]: 42
Mean number of damaged seeds per pot [1, 4]: 18.0
Mean number of dead slugs per pot [1, 4]: 0
Mean number of plants present per pot [1, 4]: 7.3
Mean number fecal pellets per pot [1, 5]: 107
Mean number of damaged seeds per pot [1, 5]: 37.3
Mean number of dead slugs per pot [1, 5]: 0
Mean number of plants present per pot [1, 5]: 0.3
Mean number fecal pellets per pot [1, 6]: 158
Mean number of damaged seeds per pot [1, 6]: 39.0
Mean number of dead slugs per pot [1, 6]: 0
Mean number of plants present per pot [1, 6]: 0.3
Mean number fecal pellets per pot [1, 7]: 144
Mean number of damaged seeds per pot [1, 7]: 38.8
Mean number of dead slugs per pot [1, 7]: 0
Mean number of plants present per pot [1, 7]: 0.3
number of utilizable plants after 14 days ([1]; 4 ml formulated per kg seed): 0
percentage of damaged seeds after 14 days ([1]; 4 ml formulated per kg seed): 98%
Mean number of damaged seeds per pot [1, 8]: 1.8
Mean number of dead slugs per pot [1, 8]: 0
Mean number fecal pellets per pot [1, 9]: 30
Mean number of damaged seeds per pot [1, 9]: 15.5
Mean number of dead slugs per pot [1, 9]: 0
Mean number of plants present per pot [1, 9]: 6.0
Mean number fecal pellets per pot [1, 10]: 115
Mean number of damaged seeds per pot [1, 10]: 37.0
Mean number of dead slugs per pot [1, 10]: 0
Mean number of plants present per pot [1, 10]: 0.3
Mean number fecal pellets per pot [1, 11]: 126
Mean number of damaged seeds per pot [1, 11]: 36.5
Mean number of dead slugs per pot [1, 11]: 0.3
Mean number of plants present per pot [1, 11]: 0
Mean number fecal pellets per pot [1, 12]: 133
Mean number of damaged seeds per pot [1, 12]: 39.0
Mean number of dead slugs per pot [1, 12]: 0.5
Mean number of plants present per pot [1, 12]: 0
number of utilizable plants after 14 days ([1]; 8 ml formulated per kg seed): 3.8
percentage of damaged seeds after 14 days ([1]; 8 ml formulated per kg seed): 84%
Mean number of damaged seeds per pot [1, 13]: 2.0
Mean number of dead slugs per pot [1, 13]: 0
Mean number fecal pellets per pot [1, 14]: 33
Mean number of damaged seeds per pot [1, 14]: 10.3
Mean number of dead slugs per pot [1, 14]: 0
Mean number of plants present per pot [1, 14]: 5.5
Mean number fecal pellets per pot [1, 15]: 85
Mean number of damaged seeds per pot [1, 15]: 29.8
Mean number of dead slugs per pot [1, 15]: 0
Mean number of plants present per pot [1, 15]: 5.3
Mean number fecal pellets per pot [1, 16]: 108
Mean number of damaged seeds per pot [1, 16]: 30.8
Mean number of dead slugs per pot [1, 16]: 0
Mean number of plants present per pot [1, 16]: 5.5
Mean number fecal pellets per pot [1, 17]: 112
Mean number of damaged seeds per pot [1, 17]: 33.8
Mean number of dead slugs per pot [1, 17]: 0.3
Mean number of plants present per pot [1, 17]: 5.5
number of utilizable plants after 14 days ([1]; 23 ml formulated per kg seed): 2.5
percentage of damaged seeds after 14 days ([1]; 23 ml formulated per kg seed): 79%
Mean number of damaged seeds per pot [1, 18]: 0.5
Mean number of dead slugs per pot [1, 18]: 0
Mean number fecal pellets per pot [1, 19]: 20
Mean number of damaged seeds per pot [1, 19]: 8.5
Mean number of dead slugs per pot [1, 19]: 0.3
Mean number of plants present per pot [1, 19]: 6.8
Mean number fecal pellets per pot [1, 20]: 91
Mean number of damaged seeds per pot [1, 20]: 29.8
Mean number of dead slugs per pot [1, 20]: 0.3
Mean number of plants present per pot [1, 20]: 6.3
Mean number fecal pellets per pot [1, 21]: 122
Mean number of damaged seeds per pot [1, 21]: 30.0
Mean number of dead slugs per pot [1, 21]: 0.8
Mean number of plants present per pot [1, 21]: 7.0
Mean number fecal pellets per pot [1, 22]: 131
Mean number of damaged seeds per pot [1, 22]: 31.5
Mean number of dead slugs per pot [1, 22]: 0.8
Mean number of plants present per pot [1, 22]: 5.8
differences in the number of damaged seeds ([1]; Example 1, dosages tested): did not result in significant differences
protection / slug controlling effect (conclusion) ([1]; Example 1, winter wheat seed treatment, dosages tested): no sufficient protection to the plants
Percentage germinated ([2]; 2 ml formulated per kg seed): 88%
Percentage germinated ([2]; 4 ml formulated per kg seed): 78%
Percentage germinated ([2]; 8 ml formulated per kg seed): 61%
Percentage germinated ([2]; 23 ml formulated per kg seed): 73%
